From patent US8435962B2, “Triacetyl-3-hydroxyphenyladenosine and its use for regulating blood fat” (Institute of Mataria Medica, Chinese Academy of Medical …, priority 2009, dated 2013)

Key:
hyperlipidemia hamsters [1] = assay: Effect on retroperitoneal fat of hyperlipidemia hamsters; type: in vivo, hamster
Description: (§2) After a week of accommodation, except control group (n=12) all the hamsters (n=72) were fed with high-fat laboratory chow.
(§3) After four weeks high-fat diet modeling, rats were treated with different drugs by intragastric administration. Control animals received an equal volume of vehicle.
(§4) At the end of 4 weeks drug treatment, animals were fasted for 12 hours (10 of each group). The next day, they were anesthetized by intraperitoneal injection of pentobarbitale sodium (45 mg/kg). Blood samples were collected from the abdominal aorta within 15 min, and plasma was separated. Plasma TC, TG, HDL-C, LDL-C, ALT, FFA were detected. Liver and the retroperitoneal fat were separated and weighed, the liver and fat index were calculated. Liver SOD and MDA were detected by kit after homogenized. The left hamsters (10 each group) drug treatment was withdrawn while high-fat diet modeling continued. Two weeks later, blood sample was collected from the orbit and serum TC and TG were detected.

hyperlipidemia hamsters [2] = assay: Serum lipid level in hyperlipidemic hamsters after drug discontinuance (2 weeks); type: in vivo, hamster; conditions: for TC / TG / serum lipid levels after drug discontinuance: hamsters; for TC / TG: 2 weeks after drug discontinuance, high-fat diet continued; for serum lipid levels after drug discontinuance: vs model group, in words
Description: as §2, §3, §4

hyperlipidemia rats [3] = assay: Effects on plasma lipid in hyperlipidemia rats (high-fat diet); type: in vivo, rat; conditions: for FFA / HDL-C / HDL/LDL / LDL-C / TC / TG: 4 weeks;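 as to all read-outs here: rats kept on high-fat chow for 4 weeks before dosing, serum taken from abdominal aorta after a 12 h fast at end of treatment, controls given vehicle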
Description: (§5) After a week of accommodation, except control group (20 rat), all the rats (120 rats) were fed with high-fat laboratory chow.
as §3
(§6) At the end of 4 weeks drug treatment, animals were fasted for 12 hours before anesthetizing by intraperitoneal injection of pentobarbitale sodium (45 mg/kg), and anticoagulated by 100 U/kg heparin through caudal vein injection. Blood samples were collected from the abdominal aorta within 15 min, and serum was separated. Serum TC, TG, HDL-C, LDL-C, ALT, FFA were detected. Liver and the fat pad behind the belly were separated and weighed, the liver and retroperitoneal fat were weighed too. […] The left rats (10 rats each group) drug treatment was withdrawn while high-fat diet modeling continued. Two weeks later, blood sample was collected from the orbit, and serum TC, TG were detected.

hyperlipidemia hamsters [4] = assay: Effects on plasma lipid in hyperlipidemia hamsters (high-fat diet); type: in vivo, hamster; conditions: for HDL-C / HDL/LDL / LDL-C / TC / TG: 4 weeks;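 as to all read-outs here: hamsters given high-fat chow for four weeks, then dosed by gavage, plasma lipids measured in abdominal aortic blood after a 12 h fast, compared with vehicle-treated controls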
Description: as §2, §3, §4

hyperlipidemia rats [5] = assay: Effects on hepatic SOD activity and MDA content of hyperlipidemia rats; type: in vivo, rat; conditions: for hepatic MDA / hepatic SOD: 4 weeks
Excerpt: (§1) Control animals received an equal volume of vehicle.

hyperlipidemia rats [6] = assay: Effects on retroperitoneal fat weight of hyperlipidemic rats; type: in vivo, rat; conditions: for Fat weight (retroperitoneal fat): hyperlipidemic rats, 4 weeks
Excerpt: as §1

hyperlipidemia rats [7] = assay: Effects on liver weight and serum ALT activity of hyperlipidemia rats; conditions: 4 weeks
Description: as §5, §3, §6

hyperlipidemia hamsters [8] = assay: Effects on serum ALT activity in hyperlipidemic hamsters; conditions: for ALT: hyperlipidemic hamsters, 4 weeks
Description: as §2, §3, §4

hyperlipidemia rats [9] = assay: Serum lipid of hyperlipidemia rats after withdrawal from drugs for 2 weeks; type: in vivo, rat; conditions: for TC / TG: rats, 2 weeks after drug withdrawal, high-fat diet continued
Description: as §5, §3, §6

hyperlipidemia hamsters [10] = assay: Effects on hepatic SOD activity and MDA concentration in hyperlipidemic hamsters' livers; type: in vivo, hamster; conditions: for hepatic MDA / hepatic SOD: 4 weeks
Description: as §2, §3, §4

[11] = hyperlipidemia rats, 3 mg/kg intragastric
[12] = hyperlipidemia rats, 6 mg/kg intragastric
[13] = hyperlipidemia rats, 12 mg/kg intragastric

CC(=O)OC[C@H]1O[C@@H](n2cnc3c(Nc4cccc(O)c4)ncnc32)[C@H](OC(C)=O)[C@@H]1OC(C)=O [WS070117, O^2′,O^3′,O^5′-tri-acetyl-N^6-(3-hydroxylphenyl)adenosine]
retroperitoneal fat (hyperlipidemia hamsters [1]; 3 mg/kg intragastric, 4 weeks): 1.26 ± 0.34 g/100g
retroperitoneal fat (hyperlipidemia hamsters [1]; 6 mg/kg intragastric, 4 weeks): 1.23 ± 0.23 g/100g
retroperitoneal fat (hyperlipidemia hamsters [1]; 12 mg/kg intragastric, 4 weeks): 1.31 ± 0.27 g/100g
retroperitoneal fat (hyperlipidemia hamsters [1]; after treatment, in words): decreased
TC (hyperlipidemia hamsters [2]; 3 mg/kg): 5.34 ± 1.32 mmol/L
TG (hyperlipidemia hamsters [2]; 3 mg/kg): 4.36 ± 1.27 mmol/L
serum lipid levels after drug discontinuance (hyperlipidemia hamsters [2]; 6 mg/kg): significantly lower
TC (hyperlipidemia hamsters [2]; 6 mg/kg): 5.02 ± 1.35 mmol/L
TG (hyperlipidemia hamsters [2]; 6 mg/kg): 4.16 ± 0.77 mmol/L
serum lipid levels after drug discontinuance (hyperlipidemia hamsters [2]; 12 mg/kg): significantly lower
TC (hyperlipidemia hamsters [2]; 12 mg/kg): 4.61 ± 1.11 mmol/L
TG (hyperlipidemia hamsters [2]; 12 mg/kg): 3.82 ± 0.66 mmol/L
time hypolipidemic effect lasted after drug discontinuance (hyperlipidemia hamsters [2]; hyperlipidemic hamsters): ≥ 2 weeks
FFA (hyperlipidemia rats [3]; 3 mg/kg intragastric): 1.04 ± 0.24 mmol/L
HDL-C (hyperlipidemia rats [3]; 3 mg/kg intragastric): 0.58 ± 0.10 mmol/L
HDL/LDL (hyperlipidemia rats [3]; 3 mg/kg intragastric): 0.43 ± 0.12
LDL-C (hyperlipidemia rats [3]; 3 mg/kg intragastric): 1.38 ± 0.27 mmol/L
TC (hyperlipidemia rats [3]; 3 mg/kg intragastric): 2.39 ± 0.34 mmol/L
TG (hyperlipidemia rats [3]; 3 mg/kg intragastric): 0.67 ± 0.15 mmol/L
FFA (hyperlipidemia rats [3]; 6 mg/kg intragastric): 0.94 ± 0.17 mmol/L
HDL-C (hyperlipidemia rats [3]; 6 mg/kg intragastric): 0.59 ± 0.18 mmol/L
HDL/LDL (hyperlipidemia rats [3]; 6 mg/kg intragastric): 0.52 ± 0.19
LDL-C (hyperlipidemia rats [3]; 6 mg/kg intragastric): 1.19 ± 0.18 mmol/L
TC (hyperlipidemia rats [3]; 6 mg/kg intragastric): 2.11 ± 0.24 mmol/L
TG (hyperlipidemia rats [3]; 6 mg/kg intragastric): 0.52 ± 0.13 mmol/L
effect on rats FFA (hyperlipidemia rats [3]; 6 mg/kg, in words): significant effect
FFA (hyperlipidemia rats [3]; 12 mg/kg intragastric): 0.97 ± 0.27 mmol/L
HDL-C (hyperlipidemia rats [3]; 12 mg/kg intragastric): 0.56 ± 0.10 mmol/L
HDL/LDL (hyperlipidemia rats [3]; 12 mg/kg intragastric): 0.47 ± 0.13
LDL-C (hyperlipidemia rats [3]; 12 mg/kg intragastric): 1.24 ± 0.20 mmol/L
TC (hyperlipidemia rats [3]; 12 mg/kg intragastric): 2.30 ± 0.29 mmol/L
TG (hyperlipidemia rats [3]; 12 mg/kg intragastric): 0.55 ± 0.19 mmol/L
HDL-C/LDL-C (hyperlipidemia rats [3]; after treatment, in words): increased
blood TC, TG and LDL-C (hyperlipidemia rats [3]; after treatment, in words): decreased
HDL-C (hyperlipidemia hamsters [4]; 3 mg/kg intragastric): 1.24 ± 0.26 mmol/L
HDL/LDL (hyperlipidemia hamsters [4]; 3 mg/kg intragastric): 0.37 ± 0.11
LDL-C (hyperlipidemia hamsters [4]; 3 mg/kg intragastric): 3.68 ± 1.44 mmol/L
TC (hyperlipidemia hamsters [4]; 3 mg/kg intragastric): 4.35 ± 0.93 mmol/L
TG (hyperlipidemia hamsters [4]; 3 mg/kg intragastric): 4.26 ± 1.52 mmol/L
HDL-C (hyperlipidemia hamsters [4]; 6 mg/kg intragastric): 1.14 ± 0.18 mmol/L
HDL/LDL (hyperlipidemia hamsters [4]; 6 mg/kg intragastric): 0.40 ± 0.09
LDL-C (hyperlipidemia hamsters [4]; 6 mg/kg intragastric): 3.00 ± 0.90 mmol/L
TC (hyperlipidemia hamsters [4]; 6 mg/kg intragastric): 4.19 ± 1.14 mmol/L
TG (hyperlipidemia hamsters [4]; 6 mg/kg intragastric): 3.67 ± 1.46 mmol/L
HDL-C (hyperlipidemia hamsters [4]; 12 mg/kg intragastric): 1.24 ± 0.40 mmol/L
HDL/LDL (hyperlipidemia hamsters [4]; 12 mg/kg intragastric): 0.59 ± 0.31
LDL-C (hyperlipidemia hamsters [4]; 12 mg/kg intragastric): 2.26 ± 0.47 mmol/L
TC (hyperlipidemia hamsters [4]; 12 mg/kg intragastric): 3.60 ± 1.84 mmol/L
TG (hyperlipidemia hamsters [4]; 12 mg/kg intragastric): 3.44 ± 1.29 mmol/L
blood TC, TG and LDL-C (hyperlipidemia hamsters [4]; after treatment, in words): decreased
rate HDL-C/LDL-C (hyperlipidemia hamsters [4]; after treatment, in words): increased
hepatic MDA (hyperlipidemia rats [5]; 3 mg/kg intragastric): 8.51 ± 3.32 nmol/mg protein
hepatic SOD (hyperlipidemia rats [5]; 3 mg/kg intragastric): 93.3 ± 37.5 U/g pr
hepatic MDA (hyperlipidemia rats [5]; 6 mg/kg intragastric): 8.71 ± 2.83 nmol/mg protein
hepatic SOD (hyperlipidemia rats [5]; 6 mg/kg intragastric): 102.0 ± 24.4 U/g pr
hepatic MDA (hyperlipidemia rats [5]; 12 mg/kg intragastric): 8.29 ± 2.78 nmol/mg protein
hepatic SOD (hyperlipidemia rats [5]; 12 mg/kg intragastric): 107.7 ± 26.4 U/g pr
hepatic SOD activity (hyperlipidemia rats [5]; after administration, in words): significantly increased
hepatic MDA content (hyperlipidemia rats [5]; in words): decreased
weight of rats' retroperitoneal fat (hyperlipidemia rats [6]; hyperlipidemia rats, after administration, in words): obviously decreased
Fat weight (retroperitoneal fat) (hyperlipidemia rats [6]; 3 mg/kg intragastric): 0.67 ± 0.33 g/100 g body weight
Fat weight (retroperitoneal fat) (hyperlipidemia rats [6]; 6 mg/kg intragastric): 0.67 ± 0.12 g/100 g body weight
Fat weight (retroperitoneal fat) (hyperlipidemia rats [6]; 12 mg/kg intragastric): 0.64 ± 0.22 g/100 g body weight
Liver weight (hyperlipidemia rats [7]; 'rat' in hamster Table 9, 3 mg/kg intragastric): 3.22 ± 0.48 g/100 g body weight
Liver weight (hyperlipidemia rats [7]; 'rat' in hamster Table 9, 6 mg/kg intragastric): 3.21 ± 0.38 g/100 g body weight
Liver weight (hyperlipidemia rats [7]; 'rat' in hamster Table 9, 12 mg/kg intragastric): 3.26 ± 0.54 g/100 g body weight
Liver weight (hyperlipidemia rats [7]; [11]): 3.22 ± 0.48 g/100 g body weight
serum ALT (hyperlipidemia rats [7]; [11]): 42.9 ± 13.7 U/L
Liver weight (hyperlipidemia rats [7]; [12]): 3.21 ± 0.38 g/100 g body weight
serum ALT (hyperlipidemia rats [7]; [12]): 41.6 ± 19.8 U/L
Liver weight (hyperlipidemia rats [7]; [13]): 3.26 ± 0.54 g/100 g body weight
serum ALT (hyperlipidemia rats [7]; [13]): 42.0 ± 16.6 U/L
ALT (hyperlipidemia hamsters [8]; 3 mg/kg intragastric): 100.7 ± 38.2 U/L
ALT (hyperlipidemia hamsters [8]; 6 mg/kg intragastric): 91.7 ± 23.1 U/L
ALT (hyperlipidemia hamsters [8]; 12 mg/kg intragastric): 95.2 ± 34.8 U/L
serum ALT activity (hyperlipidemia hamsters [8]; text of hamster Example 3 says 'hyperlipidemic rats', in words): slightly reduced
time blood-fat regulatory effect is sustained after withdrawal (hyperlipidemia rats [9]; hyperlipidemia rats): more than 2 weeks
serum TC content after withdrawal from drugs for 2 weeks (hyperlipidemia rats [9]; hyperlipidemia rats, in words): significantly lower than that of the model group
TC (hyperlipidemia rats [9]; 3 mg/kg): 2.12 ± 0.45 mmol/L
TG (hyperlipidemia rats [9]; 3 mg/kg): 1.04 ± 0.19 mmol/L
TC (hyperlipidemia rats [9]; 6 mg/kg): 2.02 ± 0.43 mmol/L
TG (hyperlipidemia rats [9]; 6 mg/kg): 1.03 ± 0.22 mmol/L
TC (hyperlipidemia rats [9]; 12 mg/kg): 2.15 ± 0.32 mmol/L
TG (hyperlipidemia rats [9]; 12 mg/kg): 1.01 ± 0.38 mmol/L
hepatic MDA (hyperlipidemia hamsters [10]; 3 mg/kg intragastric): 4.8 ± 1.2 nmol/mg protein
hepatic SOD (hyperlipidemia hamsters [10]; 3 mg/kg intragastric): 84.0 ± 19.6 U/g pr
hepatic MDA (hyperlipidemia hamsters [10]; 6 mg/kg intragastric): 4.23 ± 0.72 nmol/mg protein
hepatic SOD (hyperlipidemia hamsters [10]; 6 mg/kg intragastric): 95.1 ± 31.6 U/g pr
hepatic MDA (hyperlipidemia hamsters [10]; 12 mg/kg intragastric): 4.6 ± 0.92 nmol/mg protein
hepatic SOD (hyperlipidemia hamsters [10]; 12 mg/kg intragastric): 91.9 ± 22.9 U/g pr
MDA concentration (hyperlipidemia hamsters [10]; in words): lower than the model group
